Results from patent US20120058989A1, “ANTIBACTERIAL FLUOROQUINOLONE ANALOGS” (Achaogen, Inc., priority 2008, published 2012).

Assays:
Assay in all cases: MIC, CLSI broth microdilution
Assay type in all cases: cell-based
[1] = tested on: A. baumannii AABA1009 (Fluoroquinolone-resistant); conditions: Table 2
In short: (§1)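 CLSI M7-A7 broth microdilution in Mueller Hinton Broth using two-fold compound serial dilutions. Inoculum was prepared from the previous day's agar colonies at a final 5×10^5 CFU/mL. Plates were incubated at 35° C for 20 hours in ambient air.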

[2] = tested on: S. pneumoniae ASPN1027 (Fluoroquinolone-resistant); conditions: Table 2
In short: as §1

[3] = tested on: E. coli AECO066 (Fluoroquinolone-resistant); conditions: Table 2
In short: as §1

[4] = tested on: P. aeruginosa APAE001 (Fluoroquinolone-susceptible, ATCC27853); conditions: Table 2
In short: as §1

[5] = tested on: S. aureus ASAU1031 (Fluoroquinolone-resistant); conditions: Table 2
In short: as §1

[6] = tested on: S. pneumoniae ASPN001 (Fluoroquinolone-susceptible, ATCC49619); conditions: Table 2
In short: as §1

[7] = tested on: S. aureus ASAU001 (Fluoroquinolone-susceptible, ATCC29213); conditions: Table 2
In short: as §1

[8] = tested on: A. baumannii AABA1065 (Fluoroquinolone-susceptible); conditions: Table 2
In short: as §1

[9] = tested on: P. aeruginosa APAE054 (Fluoroquinolone-resistant); conditions: Table 2
In short: as §1

[10] = tested on: E. coli AECO001 (Fluoroquinolone susceptible, ATCC25922); conditions: Table 2, 35° C., 20 hours
In short: as §1

Compound: N[C@H]1C[C@H]2CNCc3c(c(F)cc4c(=O)c(C(=O)O)cn(C5CC5)c34)N2C1.O=C(O)C(F)(F)F.O=C(O)C(F)(F)F [5/11, (3aS,5S)-5-amino-13-cyclopropyl-8-fluoro-10-oxo-2,3,3a,4,5,6,10,13-octahydro-1H-pyrrolo[2′,1′:3,4][1,4]diazepino[5,6-h]quinoline-11-carboxylic acid bis(trifluoroacetate)]
- MIC AABA 1009 [1]: C (MIC's of greater than 8.0 μg/mL = C)
- MIC ASPN 1027 [2]: C (MIC's of greater than 8.0 μg/mL = C)
- MIC AECO 066 [3]: C (MIC's of greater than 8.0 μg/mL = C)
- MIC APAE 001 [4]: B (MIC's of greater than 1.0 μg/mL to 8.0 μg/mL = B)
- MIC ASAU 1031 [5]: C (MIC's of greater than 8.0 μg/mL = C)
- MIC ASPN 001 [6]: B (MIC's of greater than 1.0 μg/mL to 8.0 μg/mL = B)
- MIC ASAU 001 [7]: B (MIC's of greater than 1.0 μg/mL to 8.0 μg/mL = B)
- MIC AABA 1065 [8]: B (MIC's of greater than 1.0 μg/mL to 8.0 μg/mL = B)
- MIC APAE 054 [9]: C (MIC's of greater than 8.0 μg/mL = C)
- MIC AECO 001 [10]: A (MIC's of 1.0 μg/mL or less = A)
